# Data as given in US6875851B1 (priority 1999, dated 2005).
# Values joined by “and” are separate entries in the source; they are usually repeats but may differ in a detail not shown here. Equal entries are not always repeated. “Also recorded” adds a separate entry of the source. Where two headings read alike, the source gives them in different places. Where no end group is shown, it is not given here. [ ]: non-standard residue; d: D form. The star is where a group is joined. pNA = O=[N+]([O-])c1ccc(N*)cc1; Cbz = O=C(OCc1ccccc1)*
# Key:
# PTP-A [1] = type: biochemical, P. gingivalis; conditions: for Residual activity of PTP-A, %: pH 7.6
# DPP IV [2] = type: biochemical, P. gingivalis; conditions: pH 7.6
# P. gingivalis = type: cell-based; conditions: for P. gingivalis growth (OD600): 37° C.
# PTP-A [3] = type: biochemical, P. gingivalis; conditions: enzyme:substrate 1:100, 3 hours or 24 hours, 200 mM HEPES, pH 7.5, 37° C.; for Cleavage site mediated by PTP-A: 1 μg PTP-A
# PTP-A [4] = type: biochemical, P. gingivalis; conditions: 1 mM substrate, 0.2 M HEPES, pH 7.5 at 37° C.
# Target sequence in this assay (Q7MUW6 81-732 limits assumed): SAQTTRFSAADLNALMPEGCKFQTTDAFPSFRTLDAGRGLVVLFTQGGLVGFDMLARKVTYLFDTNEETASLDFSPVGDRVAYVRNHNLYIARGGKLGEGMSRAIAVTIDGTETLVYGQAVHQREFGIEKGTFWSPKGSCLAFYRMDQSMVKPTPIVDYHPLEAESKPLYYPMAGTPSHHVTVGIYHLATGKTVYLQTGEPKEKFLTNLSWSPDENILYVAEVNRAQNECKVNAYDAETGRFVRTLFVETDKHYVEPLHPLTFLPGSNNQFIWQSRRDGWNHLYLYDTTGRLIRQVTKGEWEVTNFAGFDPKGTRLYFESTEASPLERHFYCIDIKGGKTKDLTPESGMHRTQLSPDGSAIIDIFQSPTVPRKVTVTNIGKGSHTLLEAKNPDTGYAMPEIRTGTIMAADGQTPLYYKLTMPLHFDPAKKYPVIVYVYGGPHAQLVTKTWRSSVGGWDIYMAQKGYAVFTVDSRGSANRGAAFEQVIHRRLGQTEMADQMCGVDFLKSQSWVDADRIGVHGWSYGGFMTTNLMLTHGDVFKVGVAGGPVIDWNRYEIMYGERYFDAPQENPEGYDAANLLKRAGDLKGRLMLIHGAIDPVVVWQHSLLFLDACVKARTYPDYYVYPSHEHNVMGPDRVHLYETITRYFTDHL
# DPP IV [5] = test: Cleavage specificity of DPP IV on synthetic peptides; type: biochemical, P. gingivalis; conditions: for Cleavage site mediated by DPP IV: same conditions as those used for PTP-A
# Protocol: Enzyme Specificity—Peptides were incubated with 1 μg PTP-A at an enzyme:substrate molar ratio of 1:100 for 3 hours or 24 hours in 50 μl of 200 mM HEPES, pH 7.5, at 37° C., and the reaction stopped by acidification with trifluoroacetic acid. The samples were then subjected to reverse-phase high pressure liquid chromatography using a μBondapak C-18 column (3.9×300 mm) (Waters, Millford, Mass.) and an acetonitrile gradient (0-80% in 0.075% trifluoroacetic acid in 50 min). Each peak, detected at 220 nm, was collected, lyophilized, redissolved in 50% (volume/volume) methanol, 0.1% acetic acid and subjected to analysis by mass spectrometry.
# Mass Spectrometry—A Finnigan MAT 95S, sector mass spectrometer (Finnigan MAT, Bremen, Germany) equipped with an electrospray source (ESI) was used operated essentially as described previously (Stenfors, C., et al., (1997) J. Biol. Chem. 272, 5747-5751). Peptides were identified by fitting of the obtained spectra to specific sequences using an Internet application program MsFit available at http://falcon.ludwig.ucl.ac.uk/msfit.html.
# PTP-A [6] = type: biochemical, P. gingivalis
compound,measurement,setting,value
"c1cnc2c(c1)ccc1cccnc12 [1,10-orthophenanthroline]","Residual activity of PTP-A, %",PTP-A [1],93% and 100%
same,"Residual activity of DPP IV, %",DPP IV [2],100%
"O=c1oc(Cl)c(Cl)c2ccccc12 [3,4-dichloroisocoumarin]",Growth of P. gingivalis,P. gingivalis,inhibits growth
same,Effect on PTP-A amidolytic activity (in words),PTP-A [1],only a poor inhibitor
same,"Residual activity of PTP-A, %",PTP-A [1],200%
same,"Residual activity of DPP IV, %",DPP IV [2],100%
O=C(O)CN(CCN(CC(=O)O)CC(=O)O)CC(=O)O [EDTA],"Residual activity of PTP-A, %",PTP-A [1],100%
same,"Residual activity of DPP IV, %",DPP IV [2],100%
NC(=O)CI [Iodoacetamide],Effect on PTP-A amidolytic activity (in words),PTP-A [1],stimulated enzyme amidolytic activity about two-fold
same,"Residual activity of PTP-A, %",PTP-A [1],100%
same,"Residual activity of DPP IV, %",DPP IV [2],100%
CC(=O)N[C@@H](CC(C)C)C(=O)N[C@@H](CC(C)C)C(=O)N[C@H](C=O)CCCNC(=N)N [Leupeptin],Effect on PTP-A amidolytic activity (in words),PTP-A [1],no effect at all
same,"Residual activity of PTP-A, %",PTP-A [1],100%
same,"Residual activity of DPP IV, %",DPP IV [2],20%
CCN1C(=O)C=CC1=O [N-Ethylmaleimide],Effect on PTP-A amidolytic activity (in words),PTP-A [1],not
same,"Residual activity of PTP-A, %",PTP-A [1],98%
same,"Residual activity of DPP IV, %",DPP IV [2],100%
"Cl.NCCc1ccc(S(=O)(=O)F)cc1 [PEFABLOC SC, 4-(2-aminoethyl)-benzenesulfonyl-fluoride hydrochloride]",P. gingivalis growth (OD600),P. gingivalis; Pefabloc added at 0.5 mg/ml when the optical density began to increase,decreased growth
same,P. gingivalis growth (OD600),P. gingivalis; Pefabloc added at 2.0 mg/ml when the optical density began to increase,decreased growth
same,Growth of P. gingivalis,P. gingivalis; treatment of cultures in lagphase and early logarithmic growth,inhibits growth
same,Effect on PTP-A amidolytic activity (in words),PTP-A [1],total loss of activity
same,"Residual activity of PTP-A, %",PTP-A [1],56%
same,"Residual activity of DPP IV, %",DPP IV [2],100%
O=S(=O)(F)Cc1ccccc1 [Phenylmethanesulfonyl fluoride],Effect on PTP-A amidolytic activity (in words),PTP-A [1],no effect at all
Ac-Val-Pro-Pro-Gly-Glu-Asp-Ser-Lys (Ac-VPPGEDSK) [Peptide 9],Cleavage of peptide by PTP-A (in words),PTP-A [3],resistance to enzymatic hydrolysis
Cbz-Ala-Pro-pNA,Hydrolysis of chromogenic substrate by PTP-A,PTP-A [4],only H-Ala-Phe-Pro-pNA was hydrolyzed
Cbz-Gly-Pro-pNA,Hydrolysis of chromogenic substrate by PTP-A,PTP-A [4],only H-Ala-Phe-Pro-pNA was hydrolyzed
H-Ala-Arg-Pro-↓-Ala-D-Lys-amide (H-ARPA[dK]-NH2; SMILES C[C@H](N)C(=O)N[C@@H](CCCNC(=N)N)C(=O)N1CCC[C@H]1C(=O)N[C@@H](C)C(=O)N[C@H](CCCCN)C(N)=O) [Peptide 12],Cleavage site mediated by PTP-A,PTP-A [3],H-Ala-Arg-Pro-↓-Ala-D-Lys-amide
H-Ala-Phe-Pro-pNA,Hydrolysis of chromogenic substrate by PTP-A,PTP-A [4],hydrolyzed
H-Ala-Pro-↑-Val-Arg-Ser-Leu-Asn-Cys-Thr-Leu-Arg-Asp-Ser-Gln-Gln-Lys (APVRSLNCTLRDSQQK) [Peptide 24],Cleavage site mediated by DPP IV,DPP IV [5],H-Ala-Pro-↑-Val-Arg-Ser-Leu-Asn-Cys-
H-Arg-Gly-Pro-↓-Phe-Pro-Ile (RGPFPI) [Peptide 11],Cleavage site mediated by PTP-A,PTP-A [3],H-Arg-Gly-Pro-↓-Phe-Pro-Ile
H-Arg-His-Pro-↓-Lys-Tyr-Lys-Thr-Glu-Leu (RHPKYKTEL) [Peptide 14],Cleavage site mediated by PTP-A,PTP-A [3],H-Arg-His-Pro-↓-Lys-Tyr-Lys-Thr-Glu-Leu
H-Arg-Pro-Pro-↓-Gly-Phe (RPPGF) [Peptide 2],Cleavage site mediated by PTP-A,PTP-A [3],H-Arg-Pro-Pro-↓-Gly-Phe
H-Arg-Pro-Pro-↓-Gly-Phe-Ser-Pro-Phe-Arg (RPPGFSPFR) [Peptide 1],Cleavage site mediated by PTP-A,PTP-A [3],H-Arg-Pro-Pro-↓-Gly-Phe-Ser-Pro-Phe-Arg
H-Arg-Pro-↑-Lys-Pro-↑-Gln-Gln-Phe-Phe-Gly-Leu-Met-NH2 (H-RPKPQQFFGLM-NH2) [Peptide 6],Cleavage by DPP IV (in words),DPP IV [5],found to cleave
same,Cleavage site mediated by DPP IV,DPP IV [5],Pro-↑-Lys; also recorded: Pro-↑-Gln
H-Gly-Pro-pNA,Hydrolysis of chromogenic substrate by PTP-A,PTP-A [4],only H-Ala-Phe-Pro-pNA was hydrolyzed
H-Gly-Val-Pro-↓-Lys-Thr-His-Leu-Glu-Leu (GVPKTHLEL) [Peptide 15],Cleavage site mediated by PTP-A,PTP-A [3],H-Gly-Val-Pro-↓-Lys-Thr-His-Leu-Glu-Leu
H-Leu-Pro-↑-Asp-Leu-Asp-Ser-Ser-Leu-Ala-Ser-Ile-Gln-Glu-Leu-Leu-Ser-Pro-Gln-Glu-Pro-Pro-Arg-Pro-Pro-Glu-Ala (LPDLDSSLASIQELLSPQEPPRPPEA) [Peptide 20],Cleavage by DPP IV (in words),DPP IV [5],found to cleave
same,Cleavage site mediated by DPP IV,DPP IV [5],H-Leu-Pro-↑-Asp-Leu-Asp-Ser-Ser-Leu-Ala-
H-Lys-Arg-Pro-Pro-Gly-Phe-Ser-Pro-Phe-Arg (KRPPGFSPFR; printed: Lys-Arg-Pro-Pro-Gly-Phe-Ser-Pro-Phe-Arg) [Peptide 3],Cleavage of peptide by PTP-A (in words),PTP-A [3],significant exception
H-Pro-Asn-Pro-↓-Asn-Gln-Gly-Asn-Phe-Ile (PNPNQGNFI) [Peptide 13],Cleavage site mediated by PTP-A,PTP-A [3],H-Pro-Asn-Pro-↓-Asn-Gln-Gly-Asn-Phe-Ile
H-Pro-pNA,Hydrolysis of chromogenic substrate by PTP-A,PTP-A [4],only H-Ala-Phe-Pro-pNA was hydrolyzed
H-Ser-Pro-↑-Tyr-Ser-Ser-Asp-Thr-Thr (SPYSSDTT) [Peptide 23],Cleavage site mediated by DPP IV,DPP IV [5],H-Ser-Pro-↑-Tyr-Ser-Ser-Asp-Thr-Thr
H-Val-Glu-Pro-↓-Ile-Pro-Tyr (VEPIPY) [Peptide 10],Cleavage site mediated by PTP-A,PTP-A [3],H-Val-Glu-Pro-↓-Ile-Pro-Tyr
H-Val-Pro-Pro-↓-Gly-Glu-Asp-Ser-Lys (VPPGEDSK) [Peptide 8],Cleavage site mediated by PTP-A,PTP-A [3],H-Val-Pro-Pro-↓-Gly-Glu-Asp-Ser-Lys
H-Val-Pro-Pro-↓-Gly-Glu-Asp-Ser-Lys-Glu-Val-Ala-Ala-Pro-His-Arg-Gln (VPPGEDSKEVAAPHRQ) [Peptide 7],Cleavage site mediated by PTP-A,PTP-A [3],H-Val-Pro-Pro-↓-Gly-Glu-Asp-Ser-Lys-Glu-
H-YRPPGFSPFR [Peptide 4],Cleavage of peptide by PTP-A (in words),PTP-A [3],significant exception
IGVHGWXYGGFMTINL [SEQ ID NO:24],Cleavage by DPP IV (in words),DPP IV [5],found to cleave
NH2-SAQTTRFSAADLNALMP (H-SAQTTRFSAADLNALMP; listed as Porphyromonas gingivalis) [SEQ ID NO:23],Cleavage by DPP IV (in words),DPP IV [5],found to cleave
Val-Pro,"Residual activity of PTP-A, %",PTP-A [1],100%
same,"Residual activity of DPP IV, %",DPP IV [2],1%
albumin,Cleavage of protein by PTP-A (in words),PTP-A [6],absence of any proteolytic activity
gelatin,Cleavage of protein by PTP-A (in words),PTP-A [6],absence of any proteolytic activity
interleukin 6: protein substrate,Cleavage of protein by PTP-A (in words),PTP-A [6],able to cleave a tripeptide
α1-proteinase inhibitor: Human plasma inhibitor,Effect on PTP-A amidolytic activity (in words),PTP-A [1],did not affect the enzyme activity
same,Cleavage of protein by PTP-A (in words),PTP-A [6],nor were they cleaved by PTP-A
